Where two headings read alike, the source gives them in different places.
Assays:
stereotypen Bewegungen = test: Search for stereotyped movements; format: in vivo, Ratte; conditions: rat
Source text: Suche nach stereotypen Bewegungen an der Ratte
Unmittelbar nach i.p. oder p.o. Verabreichung der zu unteruchenden Verbindungen werden die Tiere (6 Ratten pro Gruppe) in 20 x 10 x 10 cm große, mit einem Edelstahldeckel mit Löchern von 1 cm Durchmesser versehene Einzelkäfige aus durchsichtigem Kunststoff eingesetzt. Die stereotypen Bewegungen (Bewegungen der Mundhöhle, Schnüffeln, Lecken oder Kauen) werden nach der von Simon und Chermat (J. Pharmacol. Paris, 1972, 3, 235-238) beschriebenen Methode alle 10 Minuten von 0 bis 3 bewertet, bis sie bei allen Tieren verschwunden sind.

[1] = test system: Apomorphin 1 mg.kg^-1 s.c.; test: Apomorphine 1 mg/kg s.c. antagonism (no method given); format: in vivo; conditions: ip, Tabelle Ib; read-out: Erste wirksame Dosis Apomorphin 1 mg.kg^-1 s.c.
[2] = test system: durch Reserpin induzierten Hypothermie; test: Antireserpine activity (reserpine-induced hypothermia); format: in vivo, Maus; conditions: ip
Experimental: Zur Zeit 0 erhalten die Mäuse intraperitoneal Reserpin (2,5 mg/kg).
4 Stunden danach, wenn die Hypothermie genügend stark erscheint (30 bis 33°C), verabreicht man die verschiedenen zu untersuchenden Verbindungen i.p. oder p.o. Alle 30 Minuten über einen Zeitraum von 2 Stunden mißt man die Rektaltemperatur mit einer auf konstante Tiefe eingeführten, ein Thermoelement tragenden Sonde. Die Rektaltemperatur der mit verschiedenen erfindungsgemäßen Verbindungen behandelten Tiere wird mit der Temperatur einer Kontrollgruppe verglichen, die destilliertes Wasser auf die gleiche Weise wie die untersuchten Verbindungen erhält.
Die Akinesie (fehlende Bewegungen) und Ptose (Öffnungsgrad des Augenlids von 0 bis 4 nach Rubin u.a 1957) werden ebenfalls alle 30 Minuten über einen Zeitraum von 2 Stunden bewertet.
Die eine antidepressive Aktivität besitzenden Produkte wirken der durch Reserpin induzierten Hypothermie entgegen. Für jede Dosis der verabreichten Verbindung berechnet man die prozentuale Hemmung der Hypothermie.

Maus = test: Tail suspension test; format: in vivo; conditions: ip
Source text: Schwanzaufhängungstest an der Maus wie von Stéru u.a. beschrieben (Psychopharmacology 85, 367-370, 1985).
Die Substanzen werden intraperitoneal 30 Minuten vor dem Test verabreicht und die Tiese isoliert (10 Mäuse pro Dosis).
Man bewertet die Dauer der Unbeweglichkeit, ausgedrückt in Sekunden über die 6 Minuten des Tests. Man untersucht auf eine Verkürzung dieser Unbeweglichkeitszeit.

Motoraktivität = test: Actimetry (motor activity, photocell actimeter); format: in vivo, Maus; conditions: for Aktimetrie: mouse, direction of change of motor activity
Source text: Die Motoraktivität wird mittels Photozellenaktimetern bestimmt (Boissier und Simon, Arch. Int. Pharmacodyn. 1965, 158, 212-221).
Die Mäuse (10 oder ein Vielfaches von 10 pro Gruppe) werden unmittelbar nach i.p. Verabreichung der zu untersuchenden Verbindungen in das Aktimeter eingesetzt. Die Motoraktivität wird danach bis zur 60. Minute gemessen. De Zähler werden nach 30 Minuten abgelesen und dann auf 0 zurückgestellt und im Verlauf von 30 Minuten alle 10 Minuten abgelesen.
Die Beweglichkeit der mit den verschiedenen Verbindungen behandelten Tiere wird mit derjenigen einer destilliertes Wasser erhaltenden Kontrollgruppe verglichen.
Die eine psychostimulierende Aktivität besitzenden Produkte verursachen eine Zunahme der Beweglichkeit.

[3] = test system: durch Oxotremorin induzierten Hypothermie; test: Antioxotremorine activity (oxotremorine-induced hypothermia); format: in vivo, Maus; conditions: ip, read-out: Erste wirksame Dosis Oxotremorin
Experimental: Nach Ausgleich der Rektaltemperaturen erhalten Mäuse (6 pro Gruppe) entweder destillietes Wasser oder die verschiedenen zu untersuchenden Verbindungen i.p.
30 Minuten danach verabreicht man intraperitoneal Oxotremorin in einer Dosis von 0,5 mg/kg.
Die Mäuse werden dan beobachtet: Tremor wird je nach der Intensität von 0 bis 3 bewertet, und die Akinesie wird alle 10 Minuten über einen Zeitraum von 30 Minuten auf Vorliegen oder Fehlen bestimmt.
Außerdem beobachtet man 2 Stunden lang das Erscheinen peripherer Symptome (Tränen, Darmentleerung). Die Rektaltemperatur wird alle 30 Minuten über eine Zeitraum von 2 Stunden nach der Verabreichung des Oxotremorins gemessen.
Die eine antidepressive Aktivität besitzenden Produkte wirken der durch Oxotremorin induzierten Hypothermie entgegen.
Für jede Dosis der Verbindung berechnet man die prozentuale Hemmung der Hypothermie.

Apomorphin 16 mg/kg = test: Antiapomorphine activity (apomorphine 16 mg/kg s.c., hypothermia); format: in vivo, Maus
Experimental: Zur Zeit 0 nach Ausgleich der Reaktaltemperaturen werden die Mäuse (6 pro Gruppe) in deren Beobachtung gestattende Einzelkäfige (11 x 3,5 x 4 cm) eingeetzt. 30 Minuten nach i.p. bzw. p.o. Verabreichung der Testsubstanz erhalten sie Apomorphin subkutan in einer Dosis von 16 mg/kg. Die Rektaltemperatur wird 30 Minuten nach dem Apomorphin gemessen. Die Kontrolltiere erhalten destilliertes Wasser statt der zu untersuchenden Verbindungen. Die bei diesen Kontrolltieren, die 16 mg/kg Apomorphin erhalten haben, beobachtete Hypothermie liegt im Durchschnitt bei 33°C. Für jede Verbindungsdosis berechnet man die prozentuale Hemmung der Hypothermie.

Toxizität des Yohimbins = test: Potentiation of yohimbine toxicity; format: in vivo, Maus; conditions: only or lowest value of the cell
Experimental: Wirkung auf die Toxizität des Yohimbins
Zur Zeit 0 erhalten die Mäuse entweder destilliertes Wasser oder verschiedene zu untersuchende Verbindungen i.p. 30 Minuten danach verabreicht man ihnen subkutan eine infratoxische Dosis von 25 mg/kg Yohimbinchlorhydrat.
Die Mortalität wird jede Stunde über einen Zeitraum von 4 Stunden verfolgt und dann nach 24 Stunden notiert.
Die eine antidepressive Aktivität besitzenden Produkte verursachen eine Potenzierung der Toxizität des Yohimbins.

[4] = Mus musculus, read-out: Erste wirksame Dosis Reserpin, mouse, i.p., only or lowest value of the cell
[5] = Mus musculus, ip, read-out: Erste wirksame Dosis Apomorphin 16 mg/kg, mouse, i.p., only or lowest value of the cell

| Structure (SMILES) | Stereotype Bewegung (stereotypen Bewegungen; 64 mg/kg i.p.) | minimal effective dose [1] [mg/kg] | minimal effective dose ([2]; Tabelle Ib, read-out: Erste wirksame Dosis Reserpin) [mg/kg] | minimal effective dose ([2]; mouse, i.p., only or lowest value of the cell, read-out: Erste wirksame Dosis Reserpin) [mg/kg] | minimal effective dose (Maus; Tabelle Ib, read-out: Erste wirksame Dosis T.S.T. Maus) [mg/kg] | minimal effective dose (Maus; mouse, i.p., footnote of Tabelle 1, read-out: tail suspension test= positiv ab) [mg/kg] | Motilität (Motoraktivität; i.p., direction of change, Tabelle Ib) | minimal effective dose (Motoraktivität; ip, Tabelle Ib, read-out: Erste wirksame Dosis Motilität) [mg/kg] | Aktimetrie (Motoraktivität) | minimal effective dose ([3]; Tabelle Ib) [mg/kg] | minimal effective dose ([3]; mouse, i.p.) [mg/kg] | minimal effective dose (Apomorphin 16 mg/kg; ip, Tabelle Ib, read-out: Erste wirksame Dosis Apomorphin 16 mg.kg^-1 s.c.) [mg/kg] | minimal effective dose (Apomorphin 16 mg/kg; ip, mouse, i.p., only or lowest value of the cell, read-out: Erste wirksame Dosis Apomorphin 16 mg/kg) [mg/kg] | minimal effective dose (Apomorphin 16 mg/kg; mouse, further value in the same cell, route not stated (lowest = i.p.; p.o. also tested), read-out: Erste wirksame Dosis Apomorphin 16 mg/kg) [mg/kg] | Stereotype Bewegung (stereotypen Bewegungen; 64 mg/kg p.o.) | minimal effective dose [2, 4] [mg/kg] | Erste wirksame Dosis Yohimbin (Toxizität des Yohimbins; mouse, i.p.) [mg/kg] | minimal effective dose ([3]; Mus musculus) [mg/kg] | minimal effective dose (Apomorphin 16 mg/kg; [5]) [mg/kg] | minimal effective dose (Toxizität des Yohimbins; Mus musculus, ip, read-out: Erste wirksame Dosis Yohimbin, mouse, i.p.) [mg/kg] |
| --- | --- | --- | --- | --- | --- | --- | --- | --- | --- | --- | --- | --- | --- | --- | --- | --- | --- | --- | --- | --- |
| FC(F)(F)c1ccc([C@@H]2CCNC[C@H]2c2ccccc2)cc1 (racemic) [Beispiel 3, trans-3-Phenyl-4-(4-trifluormethylphenyl)-piperidin-chlorhydrat] | 0(64i.p.) | 2 | 1 | 1 | 4 | ≥ 4 | ↘ | 32 | ↘ | 8 | 8 | 2 | 2 | 4 | – | – | – | – | – | – |
| c1ccc([C@@H]2CCNC[C@H]2c2ccccc2)cc1 (relative stereo) [21 (Base), trans-3,4-Diphenylpiperidin] | – | – | – | – | – | – | – | – | – | – | – | – | – | – | 0(64p.o.) | 4 | 4 | 4 | 4 | – |
| Clc1ccc(C2CCNCC2c2ccccc2)cc1 (stereo not drawn) [Beispiel 12, cis-4-(4-Chlorphenyl)-3-phenylpiperidin] | 0(64i.p.) | – | – | – | – | – | – | – | ↘ = | – | – | – | – | – | – | 4 | – | 16 | 2 | 16 |
